{"source": "patent US9562065B2", "about": "“Sucrose octasulfates of magnesium, preparation method thereof and pharmaceutical cosmetic uses of same” (PIERRE FABRE DERMO-COSMETIQUE, priority 2011, dated 2017)", "assay_type_in_all_cases": "cell-based", "key": {"[1]": {"tested_on": "HaCaT human keratinocytes cell line", "test": "Oris Cell Migration Assay, keratinocyte migration", "conditions": "for AVG IF (Intensity of Fluorescence, proportional to the quantity of cells having migrated) / % activity/control: 24 hours; for AVG IF (Intensity of Fluorescence, proportional to the quantity of cells having migrated): DMEM 0% FCS; for % activity/control: in relation to the 0% FCS control", "protocol": "In order to evaluate the impact of sucrose octasulfate of magnesium on the cell migration of HaCaT keratinocyte cell lines, studies were carried out using the Oris Cell Migration Assay Kit (Platypus Technologies). This study was conducted in parallel with sucrose octasulfate of potassium and sucrose octasulfate of sodium for comparison.\nThe keratinocyte cell line used is the HaCaT human keratinocytes cell line, spontaneously immortalized. This line is frequently cited as a reference model in the literature.\nThe protocol used for the cell migration study is based on the use of a 96-well kit, Oris Cell Migration Assay (Platypus Technologies—TEBU), enabling the miniaturization and quantification of this cell process.\nThe principle of this test consists in studying cell migration toward the center of the well of the 96-well plate. It consists in placing a stopper in the wells, in order to create a detection zone 2 mm in diameter. Then the stoppers are removed once the cells are well adhered to the surrounding surface, thus allowing the cells to migrate toward the detection zone. Plates without stoppers and with active agents are incubated at 37° C. for 24 hours in DMEM 0% FCS. The quantity of cells located in the zone previously occupied by the stopper is then analyzed in order to evaluate cell migration. A mask is used to visualize and count only the cells located in this zone. For each condition, an average of 4 to 8 wells is prepared.\nThe products tested in this study are SOS-Mg obtained in example 1 at a concentration of 10 μM, SOS-K at 10 μM (sucrose octasulfate of potassium), SOS-Na at 10 μM (sucrose octasulfate of sodium) and EGF as positive control. A negative control is prepared in which no compound is added to the culture medium (control 0% FCS).\nThe results are quantified by means of the following formula:\n[formula] • in IF (Intensity of Fluorescence, proportional to the quantity of cells having migrated). • in percentage of activity in relation to the 0% FCS control."}, "Padi1": {"tested_on": "Padi1", "test": "mRNA expression in normal human keratinocytes (real-time PCR), Padi1", "conditions": "30 μM, 72 hours, NHK, FIG. 2", "protocol": "FIG. 2 represents the relative quantity of Padi1 mRNA produced by keratinocytes treated for 72 hours with 30 μM sucrose octasulfate of magnesium (SOS-Mg), 30 μM sucrose octasulfate of sodium (SOS-Na) or 30 μM sucrose octasulfate of magnesium (SOS-Mg) in relation to the negative control.\n(§1) The keratinocyte cell line used is the primary human keratinocyte cell line or NHKs prepared from strips of skin from cosmetic surgery waste (breast reduction). The cells are grown in low-magnesium (0.1 mM) KSFM (Invitrogen) supplemented with 25 μg/ml bovine pituitary extract (BPE) and 1.5 ng/ml […] (EGF).\n(§2) The products to be tested are incubated with keratinocytes for 72 hours. The cells are then recovered and an analysis of the expression of target genes involved in epidermal differentiation is carried out using Quantigene technology, used to quantify the expression of mRNA of interest.\n(§3) A second study was carried out under the same conditions but by measuring the expression of a larger number of genes (64 targets involved in cell differentiation) by real-time PCR.\n(§4) These inductions show the role of SOS-Mg in the induction of keratinocyte differentiation and thus of cicatrization (IVL, SPRR1A, SPRR1B and LOR), in moisturization (Padi1) as well as its antimicrobial properties (hBD2). […]"}, "hBD2 (DEFB4)": {"tested_on": "hBD2 (DEFB4)", "test": "mRNA expression in normal human keratinocytes (real-time PCR), hBD2", "conditions": "30 μM, 72 hours, NHK, FIG. 3", "protocol": "FIG. 3 represents the relative quantity of hBD2 mRNA produced by keratinocytes treated for 72 hours with 30 μM sucrose octasulfate of magnesium (SOS-Mg), 30 μM sucrose octasulfate of sodium (SOS-Na) or 30 μM sucrose octasulfate of magnesium (SOS-Mg) in relation to the negative control.\nas §1, §2, §3, §4"}, "LOR": {"tested_on": "LOR", "test": "mRNA expression in normal human keratinocytes (real-time PCR), loricrin", "conditions": "30 μM, 72 hours, NHK, FIG. 1", "protocol": "FIG. 1 represents the relative quantity of loricrin mRNA produced by keratinocytes treated for 72 hours with 30 μM sucrose octasulfate of magnesium (SOS-Mg), 30 μM sucrose octasulfate of sodium (SOS-Na) or 30 μM sucrose octasulfate of magnesium (SOS-Mg) in relation to the negative control.\nas §1, §2, §3, §4"}, "SPRR1B": {"tested_on": "SPRR1B", "test": "mRNA expression in normal human keratinocytes (real-time PCR), SPRR1B", "conditions": "30 μM, 72 hours, NHK", "protocol": "as §1, §2, §3\n(§5) These inductions show the role of SOS-Mg in the induction of keratinocyte differentiation and thus of cicatrization (IVL, SPRR1A, SPRR1B and LOR), in moisturization (Padi1) as well as its antimicrobial properties (hBD2)."}, "IVL": {"tested_on": "IVL", "test": "mRNA expression in normal human keratinocytes (real-time PCR), IVL", "conditions": "30 μM, 72 hours, NHK", "protocol": "as §1, §2, §3, §5"}, "FLG": {"tested_on": "FLG", "test": "mRNA expression in normal human keratinocytes (real-time PCR), FLG", "conditions": "30 μM, 72 hours, NHK", "protocol": "as §1, §2, §3, §5"}, "SPRR1A": {"tested_on": "SPRR1A", "test": "mRNA expression in normal human keratinocytes (real-time PCR), SPRR1A", "conditions": "30 μM, 72 hours, NHK", "protocol": "as §1, §2, §3, §5"}, "UGCG": {"tested_on": "UGCG", "test": "mRNA expression in normal human keratinocytes (Quantigene), UGCG", "parameters": "dose or concentration left out as unconfirmed", "conditions": "CaCl2, positive control, 72 hours, NHK, in relation to the negative control", "protocol": "(§6) The effect of sucrose octasulfate of magnesium and sucrose octasulfate of potassium and sodium on regulation of molecular targets involved in keratinocyte differentiation processes was evaluated. To that end, normal human keratinocytes (NHK) were brought together with the various products to be tested and the expression of various RNA coding proteins involved in the establishment of protein structures of the cornified envelope, but also in the synthesis of lipids or the expression of antimicrobial peptides, was measured.\n(§7) The keratinocyte cell line used is the primary human keratinocyte cell line or NHKs prepared from strips of skin from cosmetic surgery waste (breast reduction). […]\nas §2\n(§8) The values obtained by Quantigene are normalized in relation to the geometric mean of 2 reference genes, POL2RA and HPRT. Relative quantity is calculated in relation to the control. Regulation of the expression of the gene of interest is taken into account from a RQ (relative quantity)≧1.9 (induction) or RQ[…] (inhibition). […]"}, "CDSN": {"tested_on": "CDSN", "test": "mRNA expression in normal human keratinocytes (Quantigene), CDSN", "parameters": "dose or concentration left out as unconfirmed", "conditions": "positive control, 72 hours, NHK, in relation to the negative control", "protocol": "as §6, §7, §2, §8"}, "RNASE7": {"tested_on": "RNASE7", "test": "mRNA expression in normal human keratinocytes (Quantigene), RNASE7", "parameters": "dose or concentration left out as unconfirmed", "conditions": "CaCl2, positive control, 72 hours, NHK, in relation to the negative control", "protocol": "as §6, §7, §2, §8"}, "DEFB103A": {"tested_on": "DEFB103A", "test": "mRNA expression in normal human keratinocytes (Quantigene), DEFB103A", "parameters": "dose or concentration left out as unconfirmed", "conditions": "CaCl2, positive control, 72 hours, NHK, in relation to the negative control", "protocol": "as §6, §7, §2, §8"}}, "note": "Marks after values point to notes of the source that are not given here."}
{"molecule": "O=S(=O)([O-])OC[C@H]1O[C@@](COS(=O)(=O)[O-])(O[C@H]2O[C@H](COS(=O)(=O)[O-])[C@@H](OS(=O)(=O)[O-])[C@H](OS(=O)(=O)[O-])[C@H]2OS(=O)(=O)[O-])[C@@H](OS(=O)(=O)[O-])[C@@H]1OS(=O)(=O)[O-].[Na+].[Na+].[Na+].[Na+].[Na+].[Na+].[Na+].[Na+]", "note": "[SOS-Na, sucrose octasulfate of sodium]", "values": [{"measurement": "AVG IF (Intensity of Fluorescence, proportional to the quantity of cells having migrated)", "setting": "[1]; 10 μM, HaCaT", "value": "4988 ± 965"}, {"measurement": "% activity/control", "setting": "[1]; 10 μM", "value": 99, "unit": "%"}, {"measurement": "keratinocyte migration (result in words)", "setting": "[1]; 10 μM, HaCaT", "value": "do not induce keratinocyte migration"}]}
{"molecule": "O=S(=O)([O-])OC[C@H]1O[C@@](COS(=O)(=O)[O-])(O[C@H]2O[C@H](COS(=O)(=O)[O-])[C@@H](OS(=O)(=O)[O-])[C@H](OS(=O)(=O)[O-])[C@H]2OS(=O)(=O)[O-])[C@@H](OS(=O)(=O)[O-])[C@@H]1OS(=O)(=O)[O-].[K+].[K+].[K+].[K+].[K+].[K+].[K+].[K+]", "note": "[SOS-K, sucrose octasulfate of potassium]", "values": [{"measurement": "AVG IF (Intensity of Fluorescence, proportional to the quantity of cells having migrated)", "setting": "[1]; 10 μM, HaCaT", "value": "5001 ± 835"}, {"measurement": "% activity/control", "setting": "[1]; 10 μM", "value": 99, "unit": "%"}, {"measurement": "keratinocyte migration (result in words)", "setting": "[1]; 10 μM, HaCaT", "value": "do not induce keratinocyte migration"}]}
{"molecule": "sucrose octasulfate of magnesium [SOS-Mg]", "values": [{"measurement": "expression of Padi1 mRNA", "setting": "Padi1", "value": "induced to a greater extent"}, {"measurement": "AVG IF (Intensity of Fluorescence, proportional to the quantity of cells having migrated)", "setting": "[1]; 10 μM, HaCaT", "value": "7084 ± 662"}, {"measurement": "% activity/control", "setting": "[1]; 10 μM", "value": "140* %"}, {"measurement": "keratinocyte migration (result in words)", "setting": "[1]; 10 μM, HaCaT", "value": "induced keratinocyte migration in a statistically significant manner"}, {"measurement": "migration relative to that induced by SOS-Na and SOS-K", "setting": "[1]; 10 μM, HaCaT", "value": 1.4, "unit": "times"}, {"measurement": "expression of hBD2 (DEFB4) mRNA", "setting": "hBD2 (DEFB4)", "value": "induced to a greater extent"}, {"measurement": "expression of LOR (loricrin) mRNA", "setting": "LOR", "value": "induced to a greater extent"}, {"measurement": "expression of SPRR1B mRNA", "setting": "SPRR1B", "value": "induced"}, {"measurement": "expression of IVL mRNA", "setting": "IVL", "value": "induced"}, {"measurement": "expression of FLG mRNA", "setting": "FLG", "value": "induced"}, {"measurement": "expression of SPRR1A mRNA", "setting": "SPRR1A", "value": "induced"}]}
{"molecule": "[Ca+2].[Cl-].[Cl-]", "note": "[CaCl2]", "values": [{"measurement": "Relative quantities (RQ) of mRNA expression, UGCG", "setting": "UGCG", "value": 3.1}, {"measurement": "Relative quantities (RQ) of mRNA expression, UGCG", "setting": "UGCG; listed as Calcium", "value": "induced"}, {"measurement": "Relative quantities (RQ) of mRNA expression, CDSN", "setting": "CDSN", "value": 1.3}, {"measurement": "Relative quantities (RQ) of mRNA expression, RNASE7", "setting": "RNASE7", "value": 4.5}, {"measurement": "Relative quantities (RQ) of mRNA expression, RNASE7", "setting": "RNASE7; listed as Calcium", "value": "induced"}, {"measurement": "Relative quantities (RQ) of mRNA expression, DEFB103A", "setting": "DEFB103A", "value": 18.7}, {"measurement": "Relative quantities (RQ) of mRNA expression, DEFB103A", "setting": "DEFB103A; listed as Calcium", "value": "induced"}]}
{"molecule": "EGF: epithelial growth factor (EGF), positive control of the migration test", "values": [{"measurement": "AVG IF (Intensity of Fluorescence, proportional to the quantity of cells having migrated)", "setting": "[1]; EGF 33 ng, positive control, HaCaT", "value": "16138 ± 1548"}, {"measurement": "% activity/control", "setting": "[1]; EGF 33 ng, positive control", "value": "320*** %"}, {"measurement": "keratinocyte migration (result in words)", "setting": "[1]; EGF at 33 ng/ml, positive control, HaCaT", "value": "induced keratinocyte migration (and proliferation) in a very large and significant manner"}]}
